Values joined by “and” are separate entries in the source; they are usually repeats but may differ in a detail not shown here. Identical values can stand only once. Like-named read-outs stand apart in the source and are kept apart here.

Data set [1] relates to end stage liver disease (ESLD) patients. Put plainly: Model for End-Stage Liver Disease (MELD) score analysis in supplemented patients awaiting liver transplantation. The class given is in vivo, human. An excerpt:
Vital organs for study included: cardiac muscle acquired from heart transplant recipients with end stage heart failure (TCP n=3, TE n=5); liver from transplant recipients with end-stage liver (TCP n=3, TE n=4); adipose acquired from abdominal adipose tissue of morbidly obese patients undergoing reconstructive plastic surgery (TCP n=4, TE n=5); and brain tissue from recalcitrant epilepsy patients requiring resection (TE n=4). Control brain samples were taken from autopsy participants donated to science and represent vitamin E concentrations of the general population, without dietary TE consumption (n=4). […] TCP gel capsules contained 200 mg of d-alpha-tocopherol. Vitamin E gel capsules were sealed in blister packs. To determine compliance, study participants mailed empty packages back to the clinic every two weeks. Participant supplementation compliance for the study was >90%. Random-effects linear regression was used to estimate the individual slope and intercepts of the MELD score pre- and post-supplementation for each subject. This was performed separately for TCP and TE supplementation groups. Random-effects regression takes into account the variability within participants due to repeated measures and the variability between participants in order to estimate the standard error. Due to the serendipitous nature of the MELD score findings the length of supplementation was not standardized between patients awaiting liver transplantation. The time scale is in days relative to beginning of the patient's vitamin E supplementation. […] The percent change in the slope from pre- to post-supplementation was calculated. Summary statistics are presented for pre- and post-slope and the percent change across TE and TCP supplementation groups. Wilcoxon rank-sum was used to test differences in slope and percent change in slope between TCP and TE. Wilcoxon signed-rank test was used to compare pre- to post-supplementation.

For data set [2] the following is noted: human, in vivo.
Data set [3] can be described thus: Abdominal adipose vitamin E concentration, Surgical Patients Group. The settings on record: for Adipose vitamin E concentration, 25th percentile / Adipose vitamin E concentration, 50th percentile / Adipose vitamin E concentration, 75th percentile / Adipose vitamin E concentration, mean: 400 mg daily oral.
A short description of data set [4]: Skin biopsy vitamin E concentration following oral TE supplementation, Healthy Participants Group. The settings on record: TE 400 mg daily, 12 wk vs baseline.
The nature of data set [5]: Brain vitamin E concentration, Surgical Patients Group. Particulars: for Brain vitamin E concentration, 25th percentile / Brain vitamin E concentration, 50th percentile / Brain vitamin E concentration, 75th percentile / Brain vitamin E concentration, mean: n = 4.
Data set [6] can be described thus: Liver vitamin E concentration, Surgical Patients Group.
Data set [7] in a line: Heart (cardiac muscle) vitamin E concentration, Surgical Patients Group. Particulars: for Heart vitamin E concentration, 25th percentile / Heart vitamin E concentration, 50th percentile / Heart vitamin E concentration, 75th percentile / Heart vitamin E concentration, mean: 400 mg daily oral.
The conditions of data set [8]: human, in vivo. The source holds these as a separate data set.
The conditions of data set [9]: human, in vivo. The source holds these as a separate data set.
For data set [10], the target named is T1, HMG-CoA reductase (Homo sapiens, UniProt P04035).
T1 sequence (P04035 1-888): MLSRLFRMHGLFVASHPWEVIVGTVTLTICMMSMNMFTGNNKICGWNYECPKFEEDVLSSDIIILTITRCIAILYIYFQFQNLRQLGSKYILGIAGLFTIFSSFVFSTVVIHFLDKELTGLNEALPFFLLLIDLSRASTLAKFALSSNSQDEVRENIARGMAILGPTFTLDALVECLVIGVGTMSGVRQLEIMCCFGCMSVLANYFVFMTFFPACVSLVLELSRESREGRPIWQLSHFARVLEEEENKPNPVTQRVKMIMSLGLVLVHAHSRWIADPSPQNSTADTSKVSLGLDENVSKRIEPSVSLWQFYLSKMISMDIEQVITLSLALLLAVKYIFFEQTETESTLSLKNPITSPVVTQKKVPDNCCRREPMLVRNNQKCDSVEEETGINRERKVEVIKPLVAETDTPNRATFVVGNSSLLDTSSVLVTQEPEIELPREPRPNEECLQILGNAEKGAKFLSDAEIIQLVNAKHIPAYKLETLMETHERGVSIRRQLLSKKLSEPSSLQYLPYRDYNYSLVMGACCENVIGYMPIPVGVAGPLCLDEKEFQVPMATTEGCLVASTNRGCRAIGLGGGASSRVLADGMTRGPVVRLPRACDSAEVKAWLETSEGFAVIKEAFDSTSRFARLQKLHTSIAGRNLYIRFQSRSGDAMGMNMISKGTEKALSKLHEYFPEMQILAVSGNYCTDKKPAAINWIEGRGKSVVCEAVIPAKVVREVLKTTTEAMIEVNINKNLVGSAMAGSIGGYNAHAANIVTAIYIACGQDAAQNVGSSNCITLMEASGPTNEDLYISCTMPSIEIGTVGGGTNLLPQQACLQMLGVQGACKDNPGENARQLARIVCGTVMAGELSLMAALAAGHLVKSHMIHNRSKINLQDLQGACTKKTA
Particulars: hepatic enzyme responsible for cholesterol synthesis; background statement; cited from earlier work.

The target in data set [11] is T2, Tocopherol transfer protein (TTP) (Homo sapiens, UniProt P49638).
T2 sequence (P49638 1-278): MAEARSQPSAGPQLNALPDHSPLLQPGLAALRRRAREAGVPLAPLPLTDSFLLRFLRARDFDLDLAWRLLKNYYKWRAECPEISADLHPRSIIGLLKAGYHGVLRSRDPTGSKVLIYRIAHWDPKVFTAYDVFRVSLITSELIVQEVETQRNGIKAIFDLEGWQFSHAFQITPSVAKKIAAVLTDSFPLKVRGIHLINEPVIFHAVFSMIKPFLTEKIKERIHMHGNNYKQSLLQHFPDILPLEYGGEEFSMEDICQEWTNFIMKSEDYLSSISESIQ
Particulars: background statement; cited from earlier work.

Setting [12] is: individual patient, 400 mg daily oral.
Where [13] appears, read: TE supplemented, 400 mg daily oral.
The mark [14] stands for this setting: TE supplemented, 400 mg daily oral, n = 4.

Regarding `Cc1c(C)c2c(c(C)c1O)CC[C@@](C)(CCC[C@H](C)CCC[C@H](C)CCCC(C)C)O2` [TCP, d-alpha-tocopherol], the “participants with a reduction (improvement) in MELD score” value in data set [1] (ESLD participants, oral supplementation 400 mg daily) is listed as 20%. For the same molecule, the “MELD score Pre-supplement Intercept” value in data set [1] (individual patient awaiting liver transplantation, before supplementation (baseline)) was 16.4 (2×) and 15.7 and 16.5 and 16.9. For the same molecule, in data set [1] (setting [12]), the “MELD score Post-supplement Intercept” value is 14.2 (3×) and 14.0 and 14.4; the “MELD score slope % Change (pre vs. post)” value is 372% and −155% and 1028% and 619% and 598%. In addition, in data set [1] (individual patient, 400 mg daily oral, slope multiplied by 10,000, time in days), the “MELD score Post-supplement Slope” value is 483 and −60 and 1139 and 702 and 712. The “MELD score Pre-supplement Slope” value in [1] (individual patient, before supplementation (baseline), slope multiplied by 10,000, time in days) was 102 (2×) and 109 and 101 and 98.

Regarding `Cc1c(C)c2c(c(C)c1O)CC[C@@](C)(CCC[C@H](C)CCC[C@H](C)CCCC(C)C)O2` [αTCP, d-alpha-tocopherol], in data set [2], the “Brain vitamin E concentration, 25th percentile” value was found to be 41.1 nmol/g; the “Brain vitamin E concentration, 50th percentile” value is 43.3 nmol/g; the “Brain vitamin E concentration, 75th percentile” value is reported as 60.0 nmol/g; the “Brain vitamin E concentration, mean” value was determined as 50.5 nmol/g.

Take `Cc1c(O)cc2c(c1C)O[C@](C)(CCC[C@H](C)CCC[C@H](C)CCCC(C)C)CC2` [γTCP]: in data set [2], the “Brain vitamin E concentration, 25th percentile” value came out at 0.98 nmol/g; the “Brain vitamin E concentration, 50th percentile” value came to 2.51 nmol/g; the “Brain vitamin E concentration, 75th percentile” value stood at 10.6 nmol/g; the “Brain vitamin E concentration, mean” value was found to be 5.77 nmol/g.

With `CC(C)=CCC/C(C)=C/CC/C(C)=C/CC[C@]1(C)CCc2cc(O)c(C)c(C)c2O1` [γTE, d-gamma-tocotrienol], in data set [3] (TCP supplemented, n = 4), the “Adipose vitamin E concentration, 25th percentile” value amounted to 0.71 nmol/g; the “Adipose vitamin E concentration, 50th percentile” value was found to be 1.72 nmol/g; the “Adipose vitamin E concentration, 75th percentile” value was 3.21 nmol/g; the “Adipose vitamin E concentration, mean” value stood at 1.96 nmol/g. Also, in data set [3] (TE supplemented vs controls, P<0.05), the “adipose concentration relative to controls” value is reported as roughly 10 fold. Besides, in [3] (TE supplemented, n = 5), the “Adipose vitamin E concentration, 25th percentile” value stood at 12.4 nmol/g; the “Adipose vitamin E concentration, 50th percentile” value is reported as 17.1 nmol/g; the “Adipose vitamin E concentration, 75th percentile” value is reported as 23.5 nmol/g; the “Adipose vitamin E concentration, mean” value was 17.2 nmol/g. Also, the “effect of oral TE supplementation on skin concentration” value in data set [4] is “significantly elevated”. Besides, in data set [5] (TCP supplemented), the “Brain vitamin E concentration, 25th percentile” value is 0.03 nmol/g; the “Brain vitamin E concentration, 50th percentile” value is listed as 0.05 nmol/g; the “Brain vitamin E concentration, 75th percentile” value came out at 0.08 nmol/g; the “Brain vitamin E concentration, mean” value is 0.06 nmol/g. Besides, the “brain concentration, TE supplemented compared with control (cadaveric) brain” value in data set [5] (TE 400 mg daily) is “significantly elevated”. Further, in data set [5] (setting [13]), the “Brain vitamin E concentration, 25th percentile” value was 0.47 nmol/g; the “Brain vitamin E concentration, 50th percentile” value is 0.70 nmol/g; the “Brain vitamin E concentration, 75th percentile” value worked out at 1.19 nmol/g; the “Brain vitamin E concentration, mean” value is recorded as 0.83 nmol/g. For the same molecule, the “liver concentration, TE supplemented compared with TCP supplemented patients” value in [6] (400 mg daily) is given as “increased”. Further, in data set [6] (setting [14]), the “Liver vitamin E concentration, 25th percentile” value was 0.17 nmol/g; the “Liver vitamin E concentration, 50th percentile” value turned out to be 0.45 nmol/g; the “Liver vitamin E concentration, 75th percentile” value came out at 1.1 nmol/g; the “Liver vitamin E concentration, mean” value is reported as 0.61 nmol/g. Further, the “heart muscle level, TE supplemented compared with participants receiving TCP alone” value in [7] (400 mg daily) is listed as “significantly higher”. For the same molecule, in [7] (TCP supplemented, n = 3), the “Heart vitamin E concentration, 25th percentile” value is listed as 0.02 nmol/g; the “Heart vitamin E concentration, 50th percentile” value worked out at 0.23 nmol/g; the “Heart vitamin E concentration, 75th percentile” value turned out to be 0.26 nmol/g; the “Heart vitamin E concentration, mean” value is on record as 0.17 nmol/g. In data set [7] (TE supplemented, n = 5), the “Heart vitamin E concentration, 25th percentile” value is given as 2.07 nmol/g; the “Heart vitamin E concentration, 50th percentile” value came to 6.70 nmol/g; the “Heart vitamin E concentration, 75th percentile” value is given as 14.4 nmol/g; the “Heart vitamin E concentration, mean” value was 8.85 nmol/g.

`CC(C)=CCC/C(C)=C/CC/C(C)=C/CC[C@]1(C)CCc2cc(O)cc(C)c2O1` [δTE, d-delta-tocotrienol]: the “adipose concentration relative to controls” value in [8] was roughly 10 fold. Moreover, in [2], the “Brain vitamin E concentration, 25th percentile” value worked out at 0.09 nmol/g; the “Brain vitamin E concentration, 50th percentile” value is reported as 0.15 nmol/g; the “Brain vitamin E concentration, 75th percentile” value came out at 0.17 nmol/g; the “Brain vitamin E concentration, mean” value stood at 0.13 nmol/g. The “concentration in liver tissue relative to that found in adipose” value in [9] is “less than 10%”.

With d-alpha-tocotrienol [αTE], the “adipose concentration relative to controls” value in data set [8] was roughly 10 fold. Further, the “effect of oral TE supplementation on skin concentration” value in [4] was “significantly elevated”. Further, the “effect on activity of HMG-CoA reductase” value in [10] was “suppresses the activity”. For the same molecule, in data set [2], the “Brain vitamin E concentration, 25th percentile” value is 0.03 nmol/g; the “Brain vitamin E concentration, 50th percentile” value is listed as 0.04 nmol/g; the “Brain vitamin E concentration, 75th percentile” value is listed as 0.05 nmol/g; the “Brain vitamin E concentration, mean” value turned out to be 0.04 nmol/g. Besides, in data set [11], the “affinity of TTP to bind and transport, relative to αTCP” value was 12%. The “concentration in liver tissue relative to that found in adipose” value in [9] was “less than 10%”.

(Values after patent US20130309202A1, “Methods for Improving Liver Function” (The Ohio State University, priority 2012, published 2013).)
